The test system of series [1] is BV2 cells, a microglia cell line. The experiment in a line: Inhibition of LPS-induced microglia activity (cell number, Iba1 fluorescence intensity). In kind it is cell-based. The following applies: for fluorescence intensity of Iba1 (FIG. 8) / number of cells (FIG. 8): LPS-treated microglia, 24 hours. How it is done:
(§1) BV2 cells were cultured in high glucose DMEM medium containing 10% FBS and penicillin-streptomycin solution (5000 units/ml penicillin, 5 mg/ml streptomycin, Corning, USA) in a cell incubator at 37° C. in 5% CO2, which was used by subculturing three times a week therein.
(§2) Cultured BV2 cells were harvested using 0.1% trypsin to obtain a population, and cultured in 96-well plates pre-coated with Poly-D-Lysine (Sigma).
BV2 cells, a microglia cell line, were treated with LPS to induce microglia activation and inflammation, and eleutheroside B was treated at a concentration of 1 mM to 0.1 nM. The proliferation number and morphology changes after 24 hours of eleutheroside B treatment were quantified, and the activity level of microglial cells was verified by the fluorescence intensity of Iba1 (FIG. 6).
In order to confirm the regulation of the inflammatory response through the inhibition of microglia activity by eleutheroside B in a more precise way, high content imaging was analyzed by classifying into the number of proliferated cells and the fluorescence intensity of Iba1, and the results are shown in FIG. 8.

Another series relates to microglia. Nature of the series: Cytokine secretion of LPS-treated microglia (multiplexing of conditioned media). The following applies: conditioned media after 24 hours. In kind it is cell-based.
Series [2] concerns astrocytes. The experiment in a line: Cytokine secretion of LPS-treated astrocytes (multiplexing of conditioned media). In kind it is cell-based, rats. Particulars: conditioned media after 24 hours.
Procedure: In order to more accurately study the above effect, the secretion of cytokines was observed simultaneously with the effect of inhibiting the activity of astrocytes. After 24 hours of treatment with LPS and drugs, conditioned media were collected and changes in pro-inflammatory cytokines (TNFα) and anti-inflammatory cytokines (IL-10) were examined.
For another series, the system named is Neuro-2a. The experiment in a line: Neuronal differentiation marker analysis by qPCR in neuroblast cell line. In kind it is cell-based. Particulars: compared to the control. How it is done: (§3) B6;SJL-Tg(APPSWE)2576Kha, a genetically modified mouse for […], was used as an in-vitro brain disease model. Neural stem cells were isolated from subventricular zone (SVZ) tissues of transgenic newborn mice and neurospheres were cultured. In addition, neurosphere cells were induced to attach to the bottom with 5% FBS+F12/DMEM medium for 48 hours, and to observe differentiation potential, eleutheroside B in 5% BS+F12/DMEM medium was added to the cells, and neurite activity was observed under a microscope. In addition, the neuronal cell differentiation potential using the Neuro-2a cell line, which is a neuroblast, was confirmed. To confirm differentiation, neural differentiation markers such as DCX, Tuj1, neuroD, and NeuN were confirmed by qPCR.
In order to examine this at a molecular level, RNA analysis of neuronal differentiation markers (Sox2, Nestin, NeuroD, DCX, Tuj-1, NeuN) was performed, and the results are shown in FIG. 11.
When confirming the neuronal differentiation marker, a neuroblast cell line, Neuro-2a was used, and the differentiation was confirmed by qPCR to observe if the amoeba-type metaphase cells were differentiated into neurons by the drug.
(In general: Quantitative PCR measures a nucleic acid by following its amplification.)

The subject of the next series is microglia (Iba 1). Nature of the series: Brain immunohistochemistry of microglia activity (Iba 1) in hippocampus of 5×FAD. In kind it is in vivo, mouse. Particulars: 50 or 150 mg/kg intraperitoneally twice a week. How it is done:
(§4) In 5×FAD, an animal model of Alzheimer's disease, amyloid protein is deposited from 2.5 months and cognitive function is impaired from 6 months. Accordingly, eleutheroside B (vehicle, 50 or 150 mg/kg) was intraperitoneally administered twice a week from 4 months, and working memory ability was measured at 6 months when cognitive function was impaired. The experimental groups were 3 animals each of WT+vehicle, TG+vehicle, TG+50 mg/kg (TG_E.B(L)), and TG+150 mg/kg (TG_E.B(H)) of the same age as TG. Working memory ability was measured with Y-maze, and pre-adaptation training for the maze was performed the day before the maze experiment.
(§5) In order to confine the pathological changes related to cognitive improvement, blood was removed by perfusion through the heart. The blood-free brain was fixed in 4% paraformaldehyde for one day, then made into a paraffin block and fabricated into 4 μm tissue sections for histological staining. The activities of astrocytes (GFAP) and microglia (Iba 1) were measured by confocal microscopy in the dentate gyrus, CA1, and CA3 regions of the hippocampus and the entorhinal cortex, which are major damaged areas in Alzheimer's disease.

Series [3] relates to astrocytes. Nature of the series: Inhibition of LPS-induced astrocyte activity (cell number, cell area, GFAP intensity; high content imaging). In kind it is cell-based, rats. Particulars: LPS-activated astrocytes. How it is done: The brains of 1-2 day old rats were excised, separated from the cerebral cortex, and cultured. That is, the […] cortex was divided into single cells in high-glucose DMEM medium containing 10% FBS and penicillin-streptomycin solution (5000 units/ml penicillin, 5 mg/ml streptomycin, Corning, USA), and cultured in a 75-cm2T flask. (0.5 hemispheres/flask) in a cell incubator at 5% CO2 and 37° C.
After 1 week of culture, microglia were removed by shaking at 250 rpm for 4 hours, and the cultured astrocytes were harvested using 0.1% trypsin to obtain an astrocyte population. Astrocytes were cultured in 6-well plates previously coated with Poly-D-Lysine (Sigma).
Astrocytes were used after primary culture was isolated from the brain of pup within 1 to 3 days after birth, and the separated astrocytes were treated with LPS at expressing the lowest concentration of IL-6. The drug treatment was performed simultaneously with LPS, and the activity of astrocytes was evaluated through the number of proliferated cells and changes in morphology (FIG. 2).

The next series has as its system neural stem cells. The experiment in a line: Neurite activity from neural stem cells of B6;SJL-Tg(APPSWE)2576Kha transgenic mice. In kind it is cell-based. The following applies: 0.01 pg/mL and 1 pg/mL, compared to the control group. How it is done: as §3
In order to confirm the activity of neurite from neural stem cells according to eleutheroside B treatment, B6;SJL-Tg(APPSWE)2576Kha, a genetically modified mouse for degenerative brain disease, was used as an in-vitro brain disease model. Neural stem cells were isolated from the subventricular zone (SVZ) tissue of genetically modified newborn mice, and the number of cells to be used in the experiment was secured through neurosphere culture. […]

For a further series, the system named is 5×FAD. The experiment in a line: Working memory ability (Y-maze) in 5×FAD Alzheimer's disease animal model. In kind it is in vivo, mouse. The following applies: 50 or 150 mg/kg intraperitoneally twice a week from 4 months, measured at 6 months. How it is done: as §4
Working memory performance was performed by sequentially moving through three passages for 8 minutes in a Y-shaped maze to check whether the movement to the previous passage was remembered, and the degree of cognitive impairment was confirmed by calculating the ratio of sequentially crossing the three passages.

A further series concerns astrocytes (GFAP). The experiment in a line: Brain immunohistochemistry of astrocyte activity (GFAP) in hippocampus of 5×FAD. In kind it is in vivo, mouse. The following applies: 50 or 150 mg/kg intraperitoneally twice a week. How it is done:
as §4, §5

The test system of series [4] is BV2 cells. The experiment in a line: Cytotoxicity of eleutheroside B to microglia (CCK-8/WST-8 survival rate). In kind it is cell-based. The following applies: 24 hours, mean±standard deviation. Here is the method: as §1, §2
In order to check the cytotoxicity of eleutheroside B, BV2 cells (3×10^5 cells/well) were cultured in a 96-well culture plate for 24 hours, and then treated with various concentrations of eleutheroside B, followed by incubation for 24 hours. After 24 hours, the medium was removed and WST-8 [2-(2-methoxy-4-nitrophenyl)-3-(4-nitrophenyl)-5-(2,4-disulfophenyl)-2H-tetrazolium (Cell Counting Kit-8 (CCK-8), dojindo)] was added at a concentration of 100 uL/mL to induce a reduction reaction while incubating for 1 hour, and then absorbance (450 nm) was measured. Cell viability (%) (viability (%)=(treated group−negative control)/(positive control−negative control)×100) was calculated using the eleutheroside B treated group and the untreated control group.
On the technique in general: Tetrazolium dyes change colour on reduction, which living cells bring about.

Series [5] relates to BV2 cells. Particulars: according to the report; cited from earlier work.
Where [6] appears, read: 1-10 nM drug, compared to LPS activity.

SMILES strings stand for the structures.

On to `COc1cc2c(cc1OC)C(=O)C(CC1CCN(Cc3ccccc3)CC1)C2` (centres unmarked) [donepezil, reference compound], for which, in [1], the “fluorescence intensity of Iba1 (FIG. 8)” value is “relatively less microglial activity inhibition pattern than eleutheroside B” and the “number of cells (FIG. 8)” value is reported as “inhibiting microglia apoptosis”. In the series on microglia, the “anti-inflammatory cytokine IL-10 secretion” value is recorded as “does not affect cytokine secretion” and the “pro-inflammatory cytokine TNF-α secretion” value is reported as “does not affect cytokine secretion”. Further, in the series with astrocytes [2], the “anti-inflammatory cytokine IL-10 secretion” value was “did not affect cytokine secretion” and the “pro-inflammatory cytokine TNF-α secretion” value is listed as “did not affect cytokine secretion”.

As for `COc1cc(/C=C/CO)cc(OC)c1O[C@@H]1O[C@H](CO)[C@@H](O)[C@H](O)[C@H]1O` [eleutheroside B], in the series with Neuro-2a, the “DCX (differentiation marker)” value is “slight increase”, the “Tuj1 (differentiation marker)” value is given as “slight increase”, the “nestine (expansion phase marker)” value is given as “significant increase” and the “neuN (integration phase marker)” value is reported as “significant increase”. In the series on Neuro-2a, the “neuroD (differentiation phase marker)” value is given as “significant increase” and the “sox2 (expansion phase marker)” value is reported as “significant increase”. Moreover, in the series on microglia (Iba 1), the “fluorescence intensity of Iba 1 in hippocampus (FIG. 16)” value is on record as “lower than that of the Alzheimer's disease animal model” and the “microglia / inflammation in CA1 of the hippocampus (FIG. 18)” value was “greatly reduced almost as in the normal state”. For the same compound, the “inflammation / activity of microglial cells in all areas of the hippocampus (FIG. 17)” value with microglia (Iba 1) (compared to the Alzheimer's disease animal model) is “suppressed”. For the same compound, the “GFAP fluorescence intensity (FIG. 3)” value in the series with astrocytes [3] (0.01 pg of eleutheroside B) is listed as “reduced to almost the same intensity as the control”. Further, in the series with astrocytes [3] (setting [6]), the “cell area (FIG. 4)” value is listed as “reduced”, the “intensity of GFAP (FIG. 4)” value is reported as “reduced” and the “number of proliferated cells (FIG. 4)” value was “showed cell proliferation compared to LPS activity”. Moreover, the “Iba1 fluorescence intensity (FIG. 7)” value in series [1] (LPS-activated microglia, 10 nM) is “reduced to almost the same intensity as that of the control”. In series [1], the “fluorescence intensity of Iba1 (FIG. 8)” value is reported as “decrease” and the “number of cells (FIG. 8)” value is “increased”. The “neurites (FIG. 10)” value in the series on neural stem cells is on record as “showed an increase in neurites”. For the same compound, in the series on 5×FAD, the “working memory ability (Y-maze)” value is given as “almost the same remarkable cognitive ability improvement as the control group”. For the same compound, the “activity of astrocytes / inflammation in CA1 of the hippocampus (FIG. 15)” value with astrocytes (GFAP) was “greatly reduced”. In the series on microglia, the “anti-inflammatory cytokine IL-10 secretion” value is reported as “increased” and the “pro-inflammatory cytokine TNF-α secretion” value is “significant decrease in the pro-inflammatory cytokine TNF-α was not confirmed”. Further, the survival rate with BV2 cells [4] (20 uM) worked out at 92±13.3%. The same compound came in with a survival rate with BV2 cells [4] (40 uM) of 88±24.8%. Further, the “concentration at which cytotoxicity was reported” value in the series with BV2 cells [5] was 40 µM. In the series with astrocytes [2], the “anti-inflammatory cytokine IL-10 secretion” value was “increased” and the “pro-inflammatory cytokine TNF-α secretion” value is reported as “decreased”.
